What was measured:
[1] = Body weight in the comparative N87 study; type: in vivo, mouse (BALB/c-nu); conditions: 0.12mg i.v. (tail vein) once weekly for 6 weeks
[2] = system: A549 lung carcinoma; test: In-vivo efficacy study in the A549 mouse lung carcinoma model (drug of Example 3); parameters: species or system mouse (BALB/c-nu)
Description: • Species/strain: BALB/c nude (BALB/c-nu) • Age: 6-7 weeks • Sex: Male • Body weight: 16-18 g
The day of implantation was designated as Day 0 (D0).When the tumor volume reached approximately 100.0 mm^3 (D5), animals with poor tumor take were excluded, the remaining animals were randomized by tumor volume, and dosing commenced on the day of randomization. 2).Dosing regimen: Table 31
Tumor size is measured twice per week using a vernier caliper. The long diameter (a) and short diameter (b) are recorded. Tumor volume is calculated as: V=0.5×a×b^2.
RTV = Vt /V0 , [formula] where V0 is the tumor volume at grouping/first dosing (D0), and Vt is the tumor volume at each measurement time point.

[3] = Body weight in the A549 study of the Example 3 drug; type: in vivo, mouse (BALB/c-nu)
Description: Body weight is measured twice per week.Data are recorded and changes analyzed.

[4] = system: N87 human gastric carcinoma; test: Comparative in-vivo efficacy test in the N87 mouse gastric carcinoma model (drugs of Example 5 and Example 7); parameters: species or system mouse (BALB/c-nu)
Description: • Species/strain: BALB/c nude (BALB/c-nu) • Age: 6-8 weeks • Sex: Male • Body weight: 17-19 g
1).Inoculation and grouping: For the N87 human gastric carcinoma model, male BALB/c-nu mice (17.0-19.0 g) were used.Under aseptic conditions, N87 tumor tissue was excised and cut into 2.0 mm × 2.0 mm × 2.0 mm tumor blocks, which were implanted subcutaneously into the left axillary dorsal region of each nude mouse. The day of implantation was designated as Day 0 (D0).When tumor volume reached approximately 250.0 mm^3 (D6), animals with poor tumor take were excluded, and the remaining animals were randomized into groups according to tumor volume; dosing commenced on the day of randomization. 2).Dosing regimen: Table 27
Tumor size is measured three times per week using a vernier caliper. The long diameter (a) and short diameter (b) are recorded. Tumor volume is calculated as: V=0.5×a×b^2
RTV = Vt /V0 , [formula] where V0 is the tumor volume at grouping/first dosing (D0) and Vt is the tumor volume at each measurement time point.

[5] = Body weight in the N87 study of the Example 1 drug; type: in vivo, mouse (BALB/c nude); conditions: 0.06mg i.v. (tail vein) twice per week for 5 weeks
[6] = system: N87 gastric cancer; test: In vivo antitumor efficacy in an N87 gastric cancer mouse model (drug of Example 5); parameters: species or system mouse (BALB/c nude); conditions: 0.12mg i.v. (tail vein) once every 5 days, 5 administrations
Description: • 1. Cell culture and preparation: Thaw cells and seed into the corresponding medium (RPMI-1640 basal medium + 10% FBS + 1% penicillin/streptomycin [P/S]).
• a) Discard the culture medium and gently rinse the cells with PBS twice. • b) Add an appropriate volume of 0.25% trypsin, digest in a 37 °C incubator for about 1-2 min until cells visibly round up; then add complete medium (RPMI-1640 + 10% FBS + 1% P/S) to neutralize the trypsin.Gently pipette to detach cells and subculture at the desired split ratio. • c) Split ratio: 1: 2-1: 4; the split ratio used in this experiment is 1: 3. • d) Passage frequency: Every 2-3 days, depending on seeding density and growth.
• a) Harvest cells in logarithmic growth phase (~80-90% confluence recommended); • b) After trypsinization, add complete medium to terminate digestion; collect the suspension into centrifuge tubes and centrifuge at 1, 000 rpm for 5 min; • c) Wash the cell pellet twice with pre-chilled PBS and centrifuge each time; • d) Resuspend the pellet in PBS or serum-free medium to a final concentration of 2 × 10^7 cells/mL.
• Injection site: Subcutaneous, right axillary-dorsal region. • Inoculum: 3 × 10^6 cells/mouse; 30 mice inoculated. • Injection volume: 0.1 mL. • Method: Tumor cell inoculation.
Thaw and expand N87 cells to the required quantity; adjust the cell concentration to 3 × 10^7 cells/mL with sterile PBS and keep on ice until use. Using a single-use sterile 1 mL syringe, draw 0.1 mL of the cell suspension and inject subcutaneously into the right axillary-dorsal region of each mouse. The day of inoculation is designated Day 0 (D0).
• a)lmmediately before injection, thoroughly disperse the tumor cell suspension by pipetting to prevent cell clumping, which can reduce viability; • b)Restrain the mouse by grasping the dorsal neck skin with the thumb and forefinger while holding the tail with the little finger; • c)Using a disposable 1 mL syringe, inject the suspension subcutaneously; advance the needle slightly deeper under the skin (approximately 1 cm) to minimize leakage of the suspension from the needle tract;
Tumor size is measured three times per week using a vernier caliper. The long diameter (a) and the short diameter (b) are recorded. Tumor volume is calculated as: V=0.5×a×b^2.
RTV is calculated as: RTV = Vt/V0, where V0 is the tumor volume at grouping and initial dosing (D0), and Vt is the tumor volume at each measurement time point.
IRTW (%) = (Wcontrol group−Wtreatment group)/Wcontrol group × 100, [formula] where W denotes tumor weight.IRTW%>60% is considered effective.

[7] = end of the study (D32 or D25), targeted drug: high- and medium-dose
[8] = 41 days post-N87 inoculation, 0.12mg i.v. (tail vein) once weekly for 6 weeks

In the case of COc1cccc2c1C(=O)c1c(O)c3c(c(O)c1C2=O)C[C@@](O)(C(=O)CO)C[C@@H]3O[C@H]1C[C@H](N)[C@@H](O)[C@H](C)O1 [Epirubicin drug substance (API), Epirubicin], the “Body-weight difference (g) between Day 41 and Day 6” value [1] is reported as 3.29 g, the “Tumor growth inhibition rate (TGI, %) at different days post-inoculation” value ([2]; Day 8, 0.08mg i.v. (tail vein) twice weekly for 5 weeks) is reported as 19.90% and the “Tumor growth inhibition rate (TGI, %) at different days post-inoculation” value ([2]; Day 8, 0.12mg i.v. (tail vein) twice weekly for 5 weeks) is reported as 17.42%. For the same compound, the “Tumor growth inhibition rate (TGI, %) at different days post-inoculation” value ([2]; Day 8, 0.14mg i.v. (tail vein) twice weekly for 5 weeks) was 17.47%, the “Tumor growth inhibition rate (TGI, %) at different days post-inoculation” value ([2]; Day 11, 0.08mg i.v. (tail vein) twice weekly for 5 weeks) was 17.02% and the “Tumor growth inhibition rate (TGI, %) at different days post-inoculation” value ([2]; Day 11, 0.12mg i.v. (tail vein) twice weekly for 5 weeks) was 15.55%. For the same compound, the “Tumor growth inhibition rate (TGI, %) at different days post-inoculation” value ([2]; Day 11, 0.14mg i.v. (tail vein) twice weekly for 5 weeks) was 28.43%, the “Tumor growth inhibition rate (TGI, %) at different days post-inoculation” value ([2]; Day 14, 0.08mg i.v. (tail vein) twice weekly for 5 weeks) was -12.27% and the “Tumor growth inhibition rate (TGI, %) at different days post-inoculation” value ([2]; Day 14, 0.12mg i.v. (tail vein) twice weekly for 5 weeks) was -4.64%. The “Tumor growth inhibition rate (TGI, %) at different days post-inoculation” value ([2]; Day 14, 0.14mg i.v. (tail vein) twice weekly for 5 weeks) was 6.41%, the “Tumor growth inhibition rate (TGI, %) at different days post-inoculation” value ([2]; Day 17, 0.08mg i.v. (tail vein) twice weekly for 5 weeks) was 10.74% and the “Tumor growth inhibition rate (TGI, %) at different days post-inoculation” value ([2]; Day 17, 0.12mg i.v. (tail vein) twice weekly for 5 weeks) was 28.37%. The “Tumor growth inhibition rate (TGI, %) at different days post-inoculation” value ([2]; Day 17, 0.14mg i.v. (tail vein) twice weekly for 5 weeks) was 31.81%, the “Tumor growth inhibition rate (TGI, %) at different days post-inoculation” value ([2]; Day 22, 0.08mg i.v. (tail vein) twice weekly for 5 weeks) was 10.11% and the “Tumor growth inhibition rate (TGI, %) at different days post-inoculation” value ([2]; Day 22, 0.12mg i.v. (tail vein) twice weekly for 5 weeks) was 8.93%. For the same compound, the “Tumor growth inhibition rate (TGI, %) at different days post-inoculation” value ([2]; Day 22, 0.14mg i.v. (tail vein) twice weekly for 5 weeks) was 12.37%, the “Tumor growth inhibition rate (TGI, %) at different days post-inoculation” value ([2]; Day 25, 0.12mg i.v. (tail vein) twice weekly for 5 weeks) was 41.13% and the “Tumor growth inhibition rate (TGI, %) at different days post-inoculation” value ([2]; Day 25, 0.14mg i.v. (tail vein) twice weekly for 5 weeks) was 44.37%. For the same compound, the “Tumor growth inhibition rate (TGI, %) at different days post-inoculation” value ([2]; Day 29, 0.08mg i.v. (tail vein) twice weekly for 5 weeks) was 2.07%, the “Tumor growth inhibition rate (TGI, %) at different days post-inoculation” value ([2]; Day 29, 0.12mg i.v. (tail vein) twice weekly for 5 weeks) was 34.27% and the “Tumor growth inhibition rate (TGI, %) at different days post-inoculation” value ([2]; Day 29, 0.14mg i.v. (tail vein) twice weekly for 5 weeks) was 31.80%. For the same compound, the “Tumor growth inhibition rate (TGI, %) at different days post-inoculation” value ([2]; Day 32, 0.08mg i.v. (tail vein) twice weekly for 5 weeks) was 13.19%, the “Tumor growth inhibition rate (TGI, %) at different days post-inoculation” value ([2]; Day 32, 0.12mg i.v. (tail vein) twice weekly for 5 weeks) was 33.27% and the “Tumor growth inhibition rate (TGI, %) at different days post-inoculation” value ([2]; Day 32, 0.14mg i.v. (tail vein) twice weekly for 5 weeks) was 24.63%. For the same compound, the T/C [2, 7] was “greater than 40%”, the “tumor growth inhibition rate (calculated on the basis of tumor weight and tumor volume)” value [2, 7] was “less than 60%” and the “Body-weight difference (g) between Day 32 and Day 5” value ([3]; 0.08mg i.v. (tail vein) twice weekly for 5 weeks) was 6.3 g. The “Body-weight difference (g) between Day 32 and Day 5” value ([3]; 0.12mg i.v. (tail vein) twice weekly for 5 weeks) was 6.1 g, the “Body-weight difference (g) between Day 32 and Day 5” value ([3]; 0.14mg i.v. (tail vein) twice weekly for 5 weeks) was 0.2 g and the “Tumor weight” value [4, 8] was 0.62 ± 0.55 g. For the same compound, the “Tumor-weight inhibition rate, IRTW (%)” value [4, 8] was 51.74%, the “Tumor growth inhibition rate (TGI, %) at different post-inoculation days” value ([4]; Day 10, 0.12mg i.v. (tail vein) once weekly for 6 weeks) was 41.17% and the “Tumor growth inhibition rate (TGI, %) at different post-inoculation days” value ([4]; Day 13, 0.12mg i.v. (tail vein) once weekly for 6 weeks) was 34.62%. For the same compound, the “Tumor growth inhibition rate (TGI, %) at different post-inoculation days” value ([4]; Day 17, 0.12mg i.v. (tail vein) once weekly for 6 weeks) was 37.16%, the “Tumor growth inhibition rate (TGI, %) at different post-inoculation days” value ([4]; Day 20, 0.12mg i.v. (tail vein) once weekly for 6 weeks) was 35.17% and the “Tumor growth inhibition rate (TGI, %) at different post-inoculation days” value ([4]; Day 24, 0.12mg i.v. (tail vein) once weekly for 6 weeks) was 43.86%. The “Tumor growth inhibition rate (TGI, %) at different post-inoculation days” value ([4]; Day 27, 0.12mg i.v. (tail vein) once weekly for 6 weeks) was 43.86%, the “Tumor growth inhibition rate (TGI, %) at different post-inoculation days” value ([4]; Day 31, 0.12mg i.v. (tail vein) once weekly for 6 weeks) was 44.19% and the “Tumor growth inhibition rate (TGI, %) at different post-inoculation days” value ([4]; Day 34, 0.12mg i.v. (tail vein) once weekly for 6 weeks) was 42.97%. The “Tumor growth inhibition rate (TGI, %) at different post-inoculation days” value ([4]; Day 38, 0.12mg i.v. (tail vein) once weekly for 6 weeks) was 40.97%, the “Tumor growth inhibition rate (TGI, %) at different post-inoculation days” value ([4]; Day 41, 0.12mg i.v. (tail vein) once weekly for 6 weeks) was 51.83% and the “tumor growth inhibition rate calculated from tumor weight and tumor volume” value ([4]; end of the study (D41), tail-vein injection) was < 60%. The “Body-weight difference between Day 37 and Day 6” value [5] was 0.91 g, the “Inhibition rate (%) at different post-inoculation days” value ([6]; Day 9) was 17.5% and the “Inhibition rate (%) at different post-inoculation days” value ([6]; Day 11) was 3.5%. For the same compound, the “Inhibition rate (%) at different post-inoculation days” value ([6]; Day 13) was 10.2%, the “Inhibition rate (%) at different post-inoculation days” value ([6]; Day 16) was 24.1% and the “Inhibition rate (%) at different post-inoculation days” value ([6]; Day 18) was 32.9%. For the same compound, the “Inhibition rate (%) at different post-inoculation days” value ([6]; Day 20) was 36.4%, the “Inhibition rate (%) at different post-inoculation days” value ([6]; Day 23) was 34.6% and the “Tumor weight” value ([6]; end of study) was 0.1751 ± 0.13 g. For the same compound, the IRTW% ([6]; inhibition rate of tumor weight) was 71.987%.
